Measured values taken from patent US12708665B2, “Anti-IL-1β antibody therapy in arrhythmogenic cardiomyopathy (ACM)” (Beth Israel Deaconess Medical Center, Inc., priority 2019, dated 2026).
“Also recorded” adds a separate entry of the source.

Tested on: Dsg2^mut/mut mice
Assay: Cytokine arrays, cytokine expression in hearts of Dsg2^mut/mut mice treated with Bay 11-7082
Format: in vivo
Text: Quantitative data (mean±SEM; n=5) for expression of selected cytokines in hearts of vehicle-treated wildtype (WT) mice, Dsg2^mut/mut mice and Dsg2^mut/mut mice treated with Bay 11-7082. * P<0.05 compared to WT; †P<0.05 for treated vs. untreated Dsg2^mut/mut mice.
To characterize production of chemical mediators of the immune response in ACM, we used arrays to measure 111 different cytokines in the hearts of Dsg2^mut/mut mice and compared the amounts to those measured in the hearts of WT mice and Dsg2^mut/mut mice treated with Bay 11-7082. We observed substantial expression of multiple cytokines in the hearts of Dsg2^mut/mut mice. […] Powerful inflammatory mediators were expressed in Dsg2^mut/mut hearts including IL-1β (up by ~13-fold compared to WT hearts), IFNγ (~5-fold), IL-12 (~6-fold) and TNFα (~2-fold). […] Finally, there were increases in some molecules that fulfill anti-inflammatory roles such as IL-1Ra (up by ~4-fold).

[1] = cytokine expression level, mouse heart

Cc1ccc(S(=O)(=O)/C=C/C#N)cc1 [Bay11-7082]
IL-1β (IL-1F2), Dsg2^mut/mut (Bay11-7082) vs Dsg2^mut/mut [1]: <1 | IL-1β (IL-1F2), Dsg2^mut/mut (Bay11-7082) vs WT [1]: 6-10 | IL-2, Dsg2^mut/mut (Bay11-7082) vs Dsg2^mut/mut [1]: <1 | IL-2, Dsg2^mut/mut (Bay11-7082) vs WT [1]: <1 | IL-3, Dsg2^mut/mut (Bay11-7082) vs Dsg2^mut/mut [1]: <1 | IL-3, Dsg2^mut/mut (Bay11-7082) vs WT [1]: <1 | IL-4, Dsg2^mut/mut (Bay11-7082) vs Dsg2^mut/mut [1]: <1 | IL-4, Dsg2^mut/mut (Bay11-7082) vs WT [1]: <1 | IL-5, Dsg2^mut/mut (Bay11-7082) vs Dsg2^mut/mut [1]: <1 | IL-5, Dsg2^mut/mut (Bay11-7082) vs WT [1]: <1 | IL-6, Dsg2^mut/mut (Bay11-7082) vs Dsg2^mut/mut [1]: <1 | IL-6, Dsg2^mut/mut (Bay11-7082) vs WT [1]: <1 | IL-7, Dsg2^mut/mut (Bay11-7082) vs Dsg2^mut/mut [1]: <1 | IL-7, Dsg2^mut/mut (Bay11-7082) vs WT [1]: <1 | IL-10, Dsg2^mut/mut (Bay11-7082) vs Dsg2^mut/mut [1]: <1 | IL-10, Dsg2^mut/mut (Bay11-7082) vs WT [1]: <1 | IL-11, Dsg2^mut/mut (Bay11-7082) vs Dsg2^mut/mut [1]: <1 | IL-11, Dsg2^mut/mut (Bay11-7082) vs WT [1]: <1 | IL-12 p40, Dsg2^mut/mut (Bay11-7082) vs Dsg2^mut/mut [1]: <1 | IL-12 p40, Dsg2^mut/mut (Bay11-7082) vs WT [1]: 1-2 | IL-13, Dsg2^mut/mut (Bay11-7082) vs Dsg2^mut/mut [1]: <1 | IL-13, Dsg2^mut/mut (Bay11-7082) vs WT [1]: 1-2 | IL-15, Dsg2^mut/mut (Bay11-7082) vs Dsg2^mut/mut [1]: <1 | IL-15, Dsg2^mut/mut (Bay11-7082) vs WT [1]: 2-4 | IL-17a, Dsg2^mut/mut (Bay11-7082) vs Dsg2^mut/mut [1]: <1 | IL-17a, Dsg2^mut/mut (Bay11-7082) vs WT [1]: <1 | IL-22, Dsg2^mut/mut (Bay11-7082) vs Dsg2^mut/mut [1]: <1 | IL-22, Dsg2^mut/mut (Bay11-7082) vs WT [1]: <1 | IL-23, Dsg2^mut/mut (Bay11-7082) vs Dsg2^mut/mut [1]: <1 | IL-23, Dsg2^mut/mut (Bay11-7082) vs WT [1]: <1 | IL-27 p28, Dsg2^mut/mut (Bay11-7082) vs Dsg2^mut/mut [1]: <1 | IL-27 p28, Dsg2^mut/mut (Bay11-7082) vs WT [1]: <1 | IL-28A/B, Dsg2^mut/mut (Bay11-7082) vs Dsg2^mut/mut [1]: <1 | IL-28A/B, Dsg2^mut/mut (Bay11-7082) vs WT [1]: 1-2 | IL-33, Dsg2^mut/mut (Bay11-7082) vs Dsg2^mut/mut [1]: <1 | IL-33, Dsg2^mut/mut (Bay11-7082) vs WT [1]: 2-4 | IP-10 (CXL10/CRG-2), Dsg2^mut/mut (Bay11-7082) vs Dsg2^mut/mut [1]: <1 | IP-10 (CXL10/CRG-2), Dsg2^mut/mut (Bay11-7082) vs WT [1]: <1 | KC (CXCL1), Dsg2^mut/mut (Bay11-7082) vs Dsg2^mut/mut [1]: <1 | KC (CXCL1), Dsg2^mut/mut (Bay11-7082) vs WT [1]: <1 | LDL R, Dsg2^mut/mut (Bay11-7082) vs Dsg2^mut/mut [1]: 1-2 | LDL R, Dsg2^mut/mut (Bay11-7082) vs WT [1]: 1-2 | LIF, Dsg2^mut/mut (Bay11-7082) vs Dsg2^mut/mut [1]: <1 | LIF, Dsg2^mut/mut (Bay11-7082) vs WT [1]: <1 | LIX, Dsg2^mut/mut (Bay11-7082) vs Dsg2^mut/mut [1]: <1 | LIX, Dsg2^mut/mut (Bay11-7082) vs WT [1]: >10 | Leptin, Dsg2^mut/mut (Bay11-7082) vs Dsg2^mut/mut [1]: <1 | Leptin, Dsg2^mut/mut (Bay11-7082) vs WT [1]: 1-2 | Lipocalin-2/NGAL, Dsg2^mut/mut (Bay11-7082) vs Dsg2^mut/mut [1]: <1 | Lipocalin-2/NGAL, Dsg2^mut/mut (Bay11-7082) vs WT [1]: <1 | M-CSF, Dsg2^mut/mut (Bay11-7082) vs Dsg2^mut/mut [1]: 1-2 | M-CSF, Dsg2^mut/mut (Bay11-7082) vs WT [1]: >20 | MCP-5 (CCL12), Dsg2^mut/mut (Bay11-7082) vs Dsg2^mut/mut [1]: <1 | MCP-5 (CCL12), Dsg2^mut/mut (Bay11-7082) vs WT [1]: <1 | MIP-2 (CXCL2), Dsg2^mut/mut (Bay11-7082) vs Dsg2^mut/mut [1]: <1 | MIP-2 (CXCL2), Dsg2^mut/mut (Bay11-7082) vs WT [1]: <1 | MMP-2, Dsg2^mut/mut (Bay11-7082) vs Dsg2^mut/mut [1]: 1-2 | MMP-2, Dsg2^mut/mut (Bay11-7082) vs WT [1]: 4-6 | MMP-3, Dsg2^mut/mut (Bay11-7082) vs Dsg2^mut/mut [1]: 1-2 | MMP-3, Dsg2^mut/mut (Bay11-7082) vs WT [1]: <1 | MMP-9, Dsg2^mut/mut (Bay11-7082) vs Dsg2^mut/mut [1]: <1 | MMP-9, Dsg2^mut/mut (Bay11-7082) vs WT [1]: <1 | Myeloperoxidase, Dsg2^mut/mut (Bay11-7082) vs Dsg2^mut/mut [1]: <1 | Myeloperoxidase, Dsg2^mut/mut (Bay11-7082) vs WT [1]: 2-4 | Osteopontin (OPN), Dsg2^mut/mut (Bay11-7082) vs Dsg2^mut/mut [1]: <1 | Osteopontin (OPN), Dsg2^mut/mut (Bay11-7082) vs WT [1]: 4-6 | Osteoprotegerin/TNFRSF11B, Dsg2^mut/mut (Bay11-7082) vs Dsg2^mut/mut [1]: <1 | Osteoprotegerin/TNFRSF11B, Dsg2^mut/mut (Bay11-7082) vs WT [1]: <1 | P-Selectin/CD62P, Dsg2^mut/mut (Bay11-7082) vs Dsg2^mut/mut [1]: <1 | P-Selectin/CD62P, Dsg2^mut/mut (Bay11-7082) vs WT [1]: >10 | PD-EGF/Thymidine phosphorylase, Dsg2^mut/mut (Bay11-7082) vs Dsg2^mut/mut [1]: <1 | PD-EGF/Thymidine phosphorylase, Dsg2^mut/mut (Bay11-7082) vs WT [1]: <1 | PDGF-BB, Dsg2^mut/mut (Bay11-7082) vs Dsg2^mut/mut [1]: <1 | PDGF-BB, Dsg2^mut/mut (Bay11-7082) vs WT [1]: 1-2 | Pentraxin 2/SAP, Dsg2^mut/mut (Bay11-7082) vs Dsg2^mut/mut [1]: <1 | Pentraxin 2/SAP, Dsg2^mut/mut (Bay11-7082) vs WT [1]: 1-2 | Pentraxin 3/TSG-14, Dsg2^mut/mut (Bay11-7082) vs Dsg2^mut/mut [1]: <1 | Pentraxin 3/TSG-14, Dsg2^mut/mut (Bay11-7082) vs WT [1]: <1 | Periostin/OSF-2, Dsg2^mut/mut (Bay11-7082) vs Dsg2^mut/mut [1]: <1 | Periostin/OSF-2, Dsg2^mut/mut (Bay11-7082) vs WT [1]: <1 | Pref-1/DLK-1/FA1, Dsg2^mut/mut (Bay11-7082) vs Dsg2^mut/mut [1]: <1 | Pref-1/DLK-1/FA1, Dsg2^mut/mut (Bay11-7082) vs WT [1]: 6-10 | Proliferin, Dsg2^mut/mut (Bay11-7082) vs Dsg2^mut/mut [1]: <1 | Proliferin, Dsg2^mut/mut (Bay11-7082) vs WT [1]: 6-10 | Proprotein Convertase 9/PCSK9, Dsg2^mut/mut (Bay11-7082) vs Dsg2^mut/mut [1]: 1-2 | Proprotein Convertase 9/PCSK9, Dsg2^mut/mut (Bay11-7082) vs WT [1]: <1 | RAGE, Dsg2^mut/mut (Bay11-7082) vs Dsg2^mut/mut [1]: <1 | RAGE, Dsg2^mut/mut (Bay11-7082) vs WT [1]: <1 | RBP4, Dsg2^mut/mut (Bay11-7082) vs Dsg2^mut/mut [1]: <1 | RBP4, Dsg2^mut/mut (Bay11-7082) vs WT [1]: 1-2 | Reg3G, Dsg2^mut/mut (Bay11-7082) vs Dsg2^mut/mut [1]: <1 | Reg3G, Dsg2^mut/mut (Bay11-7082) vs WT [1]: 6-10 | Resistin, Dsg2^mut/mut (Bay11-7082) vs Dsg2^mut/mut [1]: <1 | Resistin, Dsg2^mut/mut (Bay11-7082) vs WT [1]: 2-4 | Serpin E1/PAI-1, Dsg2^mut/mut (Bay11-7082) vs Dsg2^mut/mut [1]: <1 | Serpin E1/PAI-1, Dsg2^mut/mut (Bay11-7082) vs WT [1]: 6-10 | Serpin F1/PEDF, Dsg2^mut/mut (Bay11-7082) vs Dsg2^mut/mut [1]: <1 | Serpin F1/PEDF, Dsg2^mut/mut (Bay11-7082) vs WT [1]: <1 | TIM-1/KIM-1/HAVCR, Dsg2^mut/mut (Bay11-7082) vs Dsg2^mut/mut [1]: 1-2 | TIM-1/KIM-1/HAVCR, Dsg2^mut/mut (Bay11-7082) vs WT [1]: <1 | TNF-α, Dsg2^mut/mut (Bay11-7082) vs Dsg2^mut/mut [1]: <1 | TNF-α, Dsg2^mut/mut (Bay11-7082) vs WT [1]: 1-2 | Thrombopoeitin, Dsg2^mut/mut (Bay11-7082) vs Dsg2^mut/mut [1]: 1-2 | Thrombopoeitin, Dsg2^mut/mut (Bay11-7082) vs WT [1]: <1 | VCAM-1/CD106, Dsg2^mut/mut (Bay11-7082) vs Dsg2^mut/mut [1]: 1-2 | VCAM-1/CD106, Dsg2^mut/mut (Bay11-7082) vs WT [1]: 6-10 | VEGF, Dsg2^mut/mut (Bay11-7082) vs Dsg2^mut/mut [1]: 1-2 | VEGF, Dsg2^mut/mut (Bay11-7082) vs WT [1]: <1 | WISP-1/CCN4, Dsg2^mut/mut (Bay11-7082) vs Dsg2^mut/mut [1]: <1 | WISP-1/CCN4, Dsg2^mut/mut (Bay11-7082) vs WT [1]: <1 | sICAM-1 (CD54), Dsg2^mut/mut (Bay11-7082) vs Dsg2^mut/mut [1]: <1 | sICAM-1 (CD54), Dsg2^mut/mut (Bay11-7082) vs WT [1]: 1-2 | increased expression of cytokines in Dsg2^mut/mut hearts (treated vs untreated Dsg2^mut/mut mice, FIG. 1, result in words): attenuation; also recorded: blunted or fully normalized
